Consider four compounds from patent US20060121449A1, “Method for selection of compounds which inhibit clonal cell growth and use thereof” (priority 2002, published 2006).

Experiment [1] relates to polyoma virus transformed BHK21/c13 cells, clone S100T1. Nature of the experiment: Clonal test: clonal growth of S100T1 cells in soft agar (Exp 2, 4, 6, 15, 16). The class given is cell-based, hamster. The settings on record: for Clonal growth: Exp 15, plate read the 5th day; for Effect on clonal growth at 500 μM: Exp 15, 32000 S100T1 cells/well, DMSO toxicity might interfere. On the procedure: The clonal test comprises: • 1. seeding cells in soft agar optionally containing growth factor(s); • 2. handling or incubation of special gels (e.g. ultra low gelling temperature agarose), including the production of cell density gradients. • 3. incubating in suitable temperature and atmosphere and; • 4. regular monitoring of the cells and development of clones.
The clonal test can be directed in fluid medium or in soft agar medium. Usually only transformed cells will form clones in soft agar.
After seeding and mixing, the tubes were placed in the refrigerator for about 1 hour to consolidate the ultra low melting point agarose.
120000 S100T1 cells of a polyoma virus transformed BHK21/c13 cell line, were seeded in 1 ml soft agar medium in Falcon 50 ml centrifuge tubes. […] On the top of the agar layer 0.5 ml fluid medium was added.
Agar cultures were prepared in wells of 24 well Falcon tissue culture plate. […] Insulin (Actrapid, Novo) was added in a concentration of 0.1 i.u./ml to BHK21/c13 cell cultures only.
The cells were all single cells. Each well received 32000 cells (Table 4). Plate: 24 wells Falcon tissue culture plate received a bottom layer composed as in Table 3:
The cells were all single cells.
The wells contained two layers, each of 0.3 ml agar.
The agarose was added to double distilled water and solved by heating in micro oven.

Experiment [2] relates to polyoma virus transformed BHK21/c13 cells, line S100T1. Nature of the experiment: Collocation inhibition test: clonal growth in sparsely and densely seeded areas of a cell density gradient of S100T1 cells in soft agar (Exp 13, 17, 19-26).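 For all read-outs here: soft agar cultures in 24-well plates with a cell density gradient in the top layer, compounds applied from DMSO stocks, clonal growth scored in sparse versus dense areas.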 The following applies: for Clonal growth, H: high density area of cell gradient, High / Clonal growth, L: low density area of cell gradient, High / Clonal growth, H: high density area of cell gradient, Low / Clonal growth, L: low density area of cell gradient, Low / Clonal growth, H: high density area of cell gradient, Medium / Clonal growth, L: low density area of cell gradient, Medium: 4-OH-OPB analogues, S100T1 in soft agar; for Clonal growth, H: high density area of cell gradient, High / Clonal growth, L: low density area of cell gradient, High: high concentration; for Clonal growth, H: high density area of cell gradient, Low / Clonal growth, L: low density area of cell gradient, Low: low concentration; for Clonal growth, H: high density area of cell gradient, Medium / Clonal growth, L: low density area of cell gradient, Medium: medium concentration; for Clonal growth read on the 3rd day after seeding / Clonal growth read on the 6th day after seeding: Exp 17.
Procedure: The cells should be grown in a top agar layer to avoid growth on the bottom surface. […] Both densely seeded and sparsely seeded areas were photographed.
Cells: The polyoma virus transformed offspring of BHK21/c13, S100T1, was grown on 75 cm^2 flasks on Eagles medium with 5% foetal calf serum. […] Foetal calf serum (0.7 ml) was added to each harvest. After low speed centrifugation the supernatant was discarded and the cells were dispersed in 1 ml FBS.
The concentration of ultra low gelling temperature agarose (Sigma) of the top agar layer with cells was also 0.8%. […] The addition of cells was performed at the same side of the wells in order to create similar cell density gradients. Finally the top layer agar was consolidated in the refrigerator.
After that it was incubated at 37 degrees in 5% CO2 atmosphere.
Agar cultures were prepared in Falcon 24 well tissue culture plate. Each well contained two agar layers of 0.3 ml.
Agar cultures were prepared in wells of Falcon 24 well tissue culture plate. Each contained two agar layers of 0.3 ml. […] The medium contained Eagles MEM and 10% foetal bovine serum (FBS).
The compounds were first solved in DMSO in 20 mM concentration and then diluted in medium. The top layer needed 60-90 minutes in the refrigerator for solidification before incubation in 37° C. with 5% CO2 atmosphere.
In this experiment the inhibitor was added to the bottom layer in order to get an easier way for making the cell density gradient. One side of the Falcon 24 well plate was elevated 12 degrees in the refrigerator for 60-90 minutes to solidify the bottom layer in an oblique position When then solidifying the cell containing top soft agar layer in horizontal position, the cell gradient constantly became good across the well. […] Another 90 minutes were spent in the refrigerator to consolidate the soft agar layer with cells in a horizontal position. Both layers contained 0.8% agarose, Eagles MEM and 10% FBS.
Tilting the plate 12 degrees when solidifying the bottom layer with the drug and casting the top layer with cells horizontally made a stable cell gradient.
The indicated compounds were added to soft agar cultures of the polyoma virus transformed cell line S100T1 of BHK21/c13 cells (Table 1). Agar cultures were prepared in wells of a Falcon 24 well tissue culture plate. The wells contained two agar layers of 0.3 ml. […] The bottom medium was identical, but without cells.
The compounds were first solved in DMSO in 20 mM concentration and then diluted in bottom medium. The agar layers needed 60-90 minutes in the refrigerator for consolidation before incubation at 37° C. in 5% CO2 atmosphere.

The mark [3] stands for this setting: Exp 15, 5th day, High conc., μM in wells: No 1 (4-OH—OPB) 20, 2 (Colchicine) 0.1, 3 (Diphenylhydantoin) 100, 4 (Podophyllotoxin) 0.3, 5 (Piroxicam) 50, 6 (Diclofenak) 100, ” = as line above.
The mark [4] stands for this setting: Exp 15, 5th day, Low conc., μM in wells: No 1 (4-OH—OPB) 2, 2 (Colchicine) 0.01, 3 (Diphenylhydantoin) 10, 4 (Podophyllotoxin) 0.03, 5 (Piroxicam) 5, 6 (Diclofenak) 10, 7 (Ibuprofen) 100, 8 (Naproxen) 50, 9 (Acetylsalicylic acid) 100, ” = as line above.
[5] abbreviates: High: #1 Colchicine 1, #2 Podophyllotoxin 3, #3 Etoposide 200, #4 4-OH—OPB 6.7 μM in wells, #5 DMSO 29.2 μl.
The mark [6] stands for this setting: Low: #1 Colchicine 0.1, #2 Podophyllotoxin 0.3, #3 Etoposide 20, #4 4-OH—OPB 0.67 μM in wells, #5 DMSO 1.16 μl.
The mark [7] stands for this setting: Medium: #1 Colchicine 0.3, #2 Podophyllotoxin 0.9, #3 Etoposide 60, #4 4-OH—OPB 2 μM in wells, #5 DMSO 6.8 μl.
The mark [8] stands for this setting: Summary Table 3 of analogue tests (experiments 22-25), H (high cell density), High concentration.
Setting [9] is: Summary Table 3 of analogue tests (experiments 22-25), H (high cell density), Low concentration.
Where [10] appears, read: Summary Table 3 of analogue tests (experiments 22-25), H (high cell density), Medium concentration.
Setting [11] is: Summary Table 3 of analogue tests (experiments 22-25), L (low cell density), High concentration.
[12] abbreviates: Summary Table 3 of analogue tests (experiments 22-25), L (low cell density), Low concentration.
Setting [13] is: Summary Table 3 of analogue tests (experiments 22-25), L (low cell density), Medium concentration.

Entries after “also recorded” stand apart in the source; their conditions may differ.

Turning to `CCCCC(=O)C(=O)Nc1ccccc1` [#3, 2-oxo-hexanoic acid phenylamide], the Significance result in experiment [1] (setting [3]) and in experiment [1] (setting [4]) was “”” each time. Besides, the Clonal growth result in experiment [1] (Low conc., μM in wells: No 1 (4-OH—OPB) 2, 2 (Colchicine) 0.01, 3 (Diphenylhydantoin) 10, 4 (Podophyllotoxin) 0.03, 5 (Piroxicam) 5, 6 (Diclofenak) 10, 7 (Ibuprofen) 100, 8 (Naproxen) 50, 9 (Acetylsalicylic acid) 100) was “++”; in experiment [2] (Experiment 23, A (area with high cell density), High concentration, 48 hours) it was “++”; in experiment [2] (Experiment 23, A (area with high cell density), Low concentration, 48 hours) it was “++(+)”; in experiment [2] (Experiment 23, A (area with high cell density), Medium concentration, 48 hours), “++(+)”; in experiment [2] (Experiment 23, B (area with low cell density), High concentration, 48 hours), “++”; in experiment [2] (Experiment 23, B (area with low cell density), Low concentration, 48 hours) it was “++(+)”. The Clonal growth result is “++(+)” in experiment [2] (Experiment 23, B (area with low cell density), Medium concentration, 48 hours); “++” in experiment [2] (setting [8]); “++(+)” in experiment [2] (setting [9]); “++(+)” in experiment [2] (setting [10]); “++” in experiment [2] (setting [11]); “++(+)” in experiment [2] (setting [12]). The Clonal growth result in experiment [2] (setting [13]) was “++(+)”. Also, in experiment [2], the “Clonal growth, H: high density area of cell gradient, High” value was “++”. For the same compound, the “Clonal growth, L: low density area of cell gradient, High” value (from here on “Clonal growth, L … High”) in experiment [2] is “++”. The “Clonal growth, H: high density area of cell gradient, Low” value in experiment [2] is listed as “++(+)”. Further, in experiment [2], the “Clonal growth, L: low density area of cell gradient, Low” value is “++(+)”. The “Clonal growth, H: high density area of cell gradient, Medium” value (“Clonal growth, H … Medium” below) in experiment [2] is “++(+)”. For the same compound, the “Clonal growth, L: low density area of cell gradient, Medium” value in experiment [2] is listed as “++(+)”. For the same compound, the “Clonal growth read on the 3rd day after seeding” value in experiment [2] (setting [5]) and in experiment [2] (setting [7]) was “(+)” throughout. Further, the results for the “Clonal growth read on the 6th day after seeding” value in experiment [2] (setting [5]) and in experiment [2] (setting [6]) were “−” and “+”, respectively. In experiment [2] (Exp 23, 180000 S100T1 cells/well), the Effect on growth entry is “did not show significant growth inhibition at all”.

For the compound `CCCCC(C(=O)Nc1ccccc1)C(=O)Nc1ccc(O)cc1` (stereo not drawn) [#4, 2-Butyl-N-(4-hydroxy-phenyl)-N′-phenylmalonamide], the values for the Significance result in experiment [1] (setting [3]) and in experiment [1] (setting [4]) were “probably” and “””, respectively. Further, the “Clonal growth, H: high density area of cell gradient, High” value in experiment [2] was “++”. In experiment [2], the “Clonal growth, L … High” value is recorded as “((+))”. Also, in experiment [2], the “Clonal growth, H: high density area of cell gradient, Low” value is given as “++”. Also, the “Clonal growth, L: low density area of cell gradient, Low” value in experiment [2] is “++”. Further, the “Clonal growth, H … Medium” value in experiment [2] is on record as “++”. Further, the “Clonal growth, L: low density area of cell gradient, Medium” value in experiment [2] was “++”. In addition, the “Clonal growth read on the 3rd day after seeding” value in experiment [2] (setting [5]) is reported as “−”; in experiment [2] (setting [6]) it was “+”; in experiment [2] (setting [7]), “−”. For the same compound, the “Clonal growth read on the 6th day after seeding” value in experiment [2] (setting [5]) is listed as “((+))”; in experiment [2] (setting [6]), “+”; in experiment [2] (setting [7]), “((+))”. In addition, the “Inhibition of clonal growth of sparsely seeded cells” value in experiment [2] (Exp 22, 117000 S100T1 cells/well) is on record as “smaller effect; also recorded: showed an effect, but even higher concentration was needed than for #6”. In addition, the Clonal growth entry is given as “++” in experiment [2] (Experiment 22, H: area with high cell density, High concentration); “++” in experiment [2] (Experiment 22, H: area with high cell density, Low concentration); “++” in experiment [2] (Experiment 22, H: area with high cell density, Medium concentration); “++” in experiment [2] (Experiment 22, L: area with low cell density, Low concentration); “++” in experiment [2] (Experiment 22, L: area with low cell density, Medium concentration); “++” in experiment [2] (setting [8]). The Clonal growth result in experiment [2] (setting [9]), in experiment [2] (setting [10]), in experiment [2] (setting [12]) and in experiment [2] (setting [13]) was “++” throughout.

Consider `Cc1ccc(C2(O)C(=O)N(c3ccccc3)N(c3ccccc3)C2=O)cc1` [#8, 1,2-diphenyl-4-hydroxy-4-(4-methylphenyl)-3,5-pyrazolidinedione], for which, in experiment [1] (setting [4]), the Significance entry is on record as “””. Further, the Clonal growth result is listed as “−” in experiment [1] (High conc., μM in wells: No 1 (4-OH—OPB) 20, 2 (Colchicine) 0.1, 3 (Diphenylhydantoin) 100, 4 (Podophyllotoxin) 0.3, 5 (Piroxicam) 50, 6 (Diclofenak) 100, 7 (Ibuprofen) 1000, 8 (Naproxen) 500, 9 (Acetylsalicylic acid) 1000); “+(+)” in experiment [2] (Experiment 24, H: area with high cell density, High concentration, 48 hours); “++” in experiment [2] (Experiment 24, H: area with high cell density, Low concentration, 48 hours); “++” in experiment [2] (Experiment 24, H: area with high cell density, Medium concentration, 48 hours); “+(+)” in experiment [2] (Experiment 24, L: area with low cell density, High concentration, 48 hours); “+” in experiment [2] (Experiment 24, L: area with low cell density, Low concentration, 48 hours). In addition, the Clonal growth entry in experiment [2] (Experiment 24, L: area with low cell density, Medium concentration, 48 hours) is “+(+)”; in experiment [2] (setting [8]) it was “++”; in experiment [2] (setting [9]), “+(+)”; in experiment [2] (setting [10]), “++”; in experiment [2] (setting [11]) it was “+”; in experiment [2] (setting [12]), “+(+)”. In experiment [2] (setting [13]), the Clonal growth result was “+(+)”. Besides, the “Clonal growth, H: high density area of cell gradient, High” value in experiment [2] is listed as “++”. Further, the “Clonal growth, L … High” value in experiment [2] is reported as “+”. Also, the “Clonal growth, H … Medium” value in experiment [2] is “++”. For the same compound, the “Compounds with significant inhibition of clonal growth of sparsely seeded cells” value in experiment [2] (Exp 24, 180000 S100T1 cells/well) is listed as “None”.

Turning to `COc1ccc2cc([C@H](C)C(=O)O)ccc2c1` [Naproxen], the figures for the “Effect on clonal growth at 500 μM” value in experiment [1] and in experiment [1] (listed as Naproxea) were “inhibited significantly” and “probably inhibited significantly”, respectively. Besides, in experiment [1] (Exp 16, read after 14 days, Naproxen No 9, ca. 223 μM), the Significance of results was “possible”. Further, the “Colony inhibiting activity for dosage within a range that might be therapeutic” value in experiment [1] (Exp 16, about 40000 S100T1 cells/well) is reported as “probably had a colony inhibiting activity; also recorded: the same activity possibly existed”. Further, the Significance entry in experiment [1] (Exp 16 day 14, Naproxen No 9, 108 μM) is listed as “doubtful”; in experiment [1] (Exp 16 day 14, Naproxen No 9, 232 μM) it was “possible*”; in experiment [1] (Exp 16 day 21, Naproxen No 9, 108 μM), “doubtful”; in experiment [1] (Exp 16 day 21, Naproxen No 9, 232 μM) it was “possible*”. In addition, the Growth result in experiment [1] (Exp 16 day 14, Naproxen No 9, 108 μM in wells) was “(+”; in experiment [1] (Exp 16 day 14, Naproxen No 9, 232 μM in wells), “(+)”; in experiment [1] (Exp 16 day 21, Naproxen No 9, 108 μM in wells) it was “(+”; in experiment [1] (Exp 16 day 21, Naproxen No 9, 232 μM in wells), “(+)”. The “Anti-clonal effect, summary of Exp 15” value in experiment [1] (S100T1 in soft agar) is reported as “showed possible clonal inhibition at low”. For the same compound, the “Anti-clonal effect, summary of Exp 16” value in experiment [1] (S100T1 in soft agar) was “Ibuprofen and Naproxen possibly inhibited and Acetyl”. Further, the “Effect on cell cloning in soft agar” value in experiment [2] (preliminary results, in words) is recorded as “Clonal inhibition possible”.
